# Experimental data taken from patent US9733237B2, “Methods for identifying candidates for the treatment of neurodegenerative diseases” (The Trustees of Columbia University in the City of New York, priority 2012, dated 2017).
# Read-outs that look alike come from different tables or passages of the source.
# Experiments:
# [1] = test system: SOD1^G93A (ALS) and SOD1^WT mouse embryonic stem cell-derived motor neurons; assay: Two-color screen for agents preferentially toxic to ALS motor neurons (mixed WT/G93A ES-MN culture); assay type: cell-based; conditions: for Preferential activity on ALS motor neurons: independent pair of WT and G93A lines
# Description: GFP+ and RFP+ motor neurons were seeded in 96-well plates at equal proportions and imaged using a whole-well imaging platform (Plate Runner HD, Trophos, Marseilles, France). Live cells were scored with an automated image software (Metamorph, Molecular Devices, LLC, Sunnyvale, Calif.) using a neurite outgrowth criterion of five times the cell body diameter. Compounds from a small molecule library (Trophos) were loaded using automated liquid handling, and motor neuron survival was scored at 48 and 72 hours after exposure to stressors.
# A survival ratio was calculated by dividing surviving % red cells with green cells for each well (lower left panel). Compounds eliciting ratios greater than 1.6 were considered hits (highlighted in lower left panel).
# Multiple ES cell lines from SOD1^G93A mice that had been bred to a reporter strain expressing GFP under the motor neuron-specific Hb9 promoter were generated. ES cells from mice overexpressing wildtype human SOD1 (SOD1^WT) bred to mice expressing a new Hb9::RFP reporter (K. C. Kanning, unpublished) were used as controls. When differentiated in vitro using retinoic acid and an agonist of the sonic hedgehog pathway, these ES cells therefore generated green ALS motor neurons and red controls (FIG. 1A). By mixing these in equal numbers in culture, the response of ALS and control motor neurons to otherwise identical culture conditions could be quantified. This approach would reduce noise due to differences in individual culture wells, seeding density, position in incubator, etc., and that the ratio between numbers of WT and G93A cells would be a sensitive measure of selective vulnerability.
# Using this assay miniaturized to a 96-well format, it was confirmed that after 3 days in either the presence or absence of a cocktail of neurotrophic factors, there was only a subtle decrease in ALS motor neuron survival relative to controls. An open-ended screen of the Tocriscreen Mini and Custom collection library of bioactive compounds was therefore performed to identify agents of known mechanism that could selectively induce death of ALS motor neurons. A total of 1,275 compounds were screened initially at a single concentration (10 μM), and those that were deemed too toxic were retested at 1 μM. […] Preferential activity on ALS motor neurons was subsequently confirmed for 4 of the hits using an independent pair of WT and G93A lines (FIG. 1B). The active compounds were: (a) capsaicin, an agonist of the […] receptor that is predominantly expressed on sensory neurons, (b) CPA (cyclopiazonic acid), which is an inhibitor of SERCA (sarco(endo)-plasmic reticulum Ca^++-ATPase) pumps, which sequester Ca^++ into the ER from the cytoplasm in an ATP-dependent manner (FIG. 2A), (c) DH97, a potent MT2 melatonin receptor antagonist, and (d) 2,3-DCPE, a compound that selectively induces apoptosis and downregulates Bcl-xL expression in human cancer vs. normal cells in vitro. The inventors focused on CPA because it induced the most robust change in the WT/G93A ratio (>3 in both combinations of ES lines) and because of the relevance of its mechanism of action to the alterations in Ca^++ handling that are characteristic of ALS motor neurons.
# We first asked whether the actions of CPA were direct on motor neurons, or mediated by other cell types present in the mixed culture used for screening. […] Thus, degeneration induced by SERCA inhibition robustly differentiates between SOD1^G93A and SOD1^WT motor neurons. Neither thapsigargin nor CPA has gross effects on neuronal function. […] This provides further support for the notion that the selective effect of SERCA inhibitors on ALS motor neurons is a function of the disease.
# A library of small molecule compounds (Tocriscreen Mini & Custom collection, 1275 compounds, or other collections of novel compounds) will be added at a concentration of 10 μM using automated liquid handling. The compounds will be added to the wells following the 20 hour imaging time point. […]
# [2] = test system: neurons of the pre-Botzinger complex; conditions: cited from earlier work
# [3] = test system: ES-MNs (G93A and WT); assay: Fura-2 calcium imaging of Ca++ release from ER stores; assay type: cell-based, mouse; conditions: 10 μM CPA, 20 minutes
# Description: To explore potential mechanisms underlying the ALS-selective toxicity of CPA, calcium imaging in ES-MNs loaded with the calcium indicator dye Fura-2 was used. In preliminary experiments, rise and fall constants following a 5-second pulse of kainic acid were monitored, and no significant difference between the G93A and WT lines were found (FIG. 2B). […] It was hypothesized that CPA might selectively induce an imbalance in Ca^++ handling. To monitor release of Ca^++ from endoplasmic reticulum (ER) stores, ES-MNs of each genotype were incubated for 20 minutes with 10 μM CPA. An initial rapid increase of Fura-2 signal was followed by a slow recovery, as Ca^++ was sequestered by other routes, out of which mitochondria may be the main compensatory compartment.
# [4] = test system: SOD1^G93A mice; conditions: in vivo; cited from earlier work
structure (smiles),measurement,setting,value
"OCCNCCCOc1cccc(Cl)c1Cl [2,3-DCPE]",Preferential activity on ALS motor neurons,[1],confirmed
"CC(=O)C1=C(O)[C@@H]2[C@H]3c4c[nH]c5cccc(c45)C[C@H]3C(C)(C)N2C1=O [CPA, cyclopiazonic acid]",effect on respiratory rhythm,[2]; applied to neurons of the pre-Botzinger complex,do not affect respiratory rhythm
same,reduction in WT motor neurons numbers,"[1]; 7.5 μM, after 48 hours",40-50%
same,survival ratio (red WT cells/green mutant cells),"[1]; 7.5 μM, after 48 hours",1.6-1.75
same,change in the WT/G93A ratio,[1]; both combinations of ES lines,> 3
same,G93A cells with greater initial Ca++ release,[3],about 40%
CCCCC(=O)NCCc1c(Cc2ccccc2)[nH]c2ccccc12 [DH97],Preferential activity on ALS motor neurons,[1],confirmed
O=C(/C=C/c1ccccc1)NC(NC(=S)Nc1cccc2cccnc12)C(Cl)(Cl)Cl (centres unmarked) [Salubrinal],protection in SOD1^G93A mice,[4],protective
COc1cc(CNC(=O)CCCC/C=C/C(C)C)ccc1O [capsaicin],Preferential activity on ALS motor neurons,[1],confirmed
C/C=C(/C)C(=O)O[C@H]1C(C)=C2[C@H]([C@@H]1OC(=O)CCCCCCC)[C@@](C)(OC(C)=O)C[C@H](OC(=O)CCC)[C@@]1(O)[C@H]2OC(=O)[C@@]1(C)O [thapsigargin],effect on respiratory rhythm,[2],do not affect respiratory rhythm
same,death of ALS motor neurons relative to controls,[1]; concentrations on the order of 1 nM,2- to 4 fold
